In PubChem BioAssay AID2060889 (Molecular Pharmacology Branch, DTP, NCI, 2025) one finds viability, T/C and IC50 data, which are given here for 5 compounds.

The structures appear in SMILES notation.

The subject of the experiment is LG0567-F671-PDC complex spheroids viability. Description: Anticancer human tumor LG0567-F671-PDC patient-derived lung adenocarcinoma cell line growth inhibition [RAS]. The conditions noted are these: for viability, T/C: stronger effect = lower value. An outline of the steps: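 Multi-cell-type spheroids: tumor cells plus HUVEC endothelial cells and mesenchymal stem cells. RAS-pathway inhibitors were combined with targeted agents, each dosed in half-log steps down from clinical Cmax, or from 10 microM when Cmax was unknown.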

The mark [1] stands for this setting: compound alone, run of 09/09/2024.
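Also: spheroids exposed to compound for seven days before readout.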
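For IC50 in this document: luminescence signal used as a proxy for viable cells.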

As usually defined, the viability, T/C is the result in the treated group divided by that in the control group, in per cent. As usually defined, the IC50 is the midpoint of a concentration-inhibition curve. For the compound `C=CC(=O)N1CCN(c2nc(OCC3CCCN3C)nc3c(F)c(-c4nc(N)cc(C)c4C(F)(F)F)c(Cl)cc23)C(C)C1` (stereo not given), the viability, T/C is 16.6% [middle of 12 runs] (compound 0.00316 µM); 14.1% [middle of 12 runs] (compound 0.01 µM); 13.4% [middle of 12 runs] (compound 0.0316 µM); 13.5% [middle of 12 runs] (compound 0.1 µM); 13.8% [middle of 12 runs] (compound 0.316 µM); 15.5% [middle of 12 runs] (compound 1 µM). In addition, the IC50 under setting [1] was < 3.16 nM and the IC50 (curve of compound) was < 3.16 nM.
In the case of `CC1(O)CCCC1n1c(=O)c(C(F)F)cc2cnc(NC3CCN(S(C)(=O)=O)CC3)nc21` (stereo not given), the viability, T/C is, setting by setting: (compound 0.0316 µM) 88.7% [middle of 4 runs]; (compound 0.1 µM) 86.2% [middle of 4 runs]; (compound 0.316 µM) 81.6% [middle of 4 runs]; (compound 1 µM) 91.5% [middle of 4 runs]; (compound 3.16 µM) 93.8% [middle of 4 runs]; (compound 10 µM) 47% [middle of 4 runs].
Consider `C#Cc1c(F)ccc2cc(O)cc(-c3ncc4c(N5CC6CCC(C5)N6)nc(OCC56CCCN5CC(F)C6)nc4c3F)c12` (stereo not given), for which the viability, T/C was 91.2% [middle of 8 runs] (compound 0.0316 µM); 80% [middle of 8 runs] (compound 0.1 µM); 56.1% [middle of 8 runs] (compound 0.316 µM); 36.8% [middle of 8 runs] (compound 1 µM); 19.6% [middle of 8 runs] (compound 3.16 µM); 12.4% [middle of 8 runs] (compound 10 µM). Also, the IC50 under setting [1] is 494 nM [middle of 8 runs].
In the case of `Cc1nc(N2CCC3(CC2)COC(C)C3N)c(CO)nc1Sc1ccnc(N)c1Cl` (stereo not given) + C=CC(=O)N1CCN(c2nc(OCC3CCCN3C)nc3c(F)c(-c4nc(N)cc(C)c4C(F)(F)F)c(Cl)cc23)C(C)C1, the IC50 was < 31.6 nM (curve of first compound, second compound 0.00316 µM); < 31.6 nM (curve of first compound, second compound 0.01 µM); < 31.6 nM (curve of first compound, second compound 0.0316 µM); < 31.6 nM (curve of first compound, second compound 0.1 µM); < 31.6 nM (curve of first compound, second compound 0.316 µM); < 31.6 nM (curve of first compound, second compound 1 µM). Besides, the viability, T/C reads like this: (second compound 0.00316 µM, first compound 0.0316 µM) 12.4%; (second compound 0.00316 µM, first compound 0.1 µM) 7.94%; (second compound 0.00316 µM, first compound 0.316 µM) 5.15%; (second compound 0.00316 µM, first compound 1 µM) 4.23%; (second compound 0.00316 µM, first compound 3.16 µM) 3.11%; (second compound 0.00316 µM, first compound 10 µM) 3.36%. Moreover, the viability, T/C reads like this: (second compound 0.01 µM, first compound 0.0316 µM) 10.9%; (second compound 0.01 µM, first compound 0.1 µM) 6.73%; (second compound 0.01 µM, first compound 0.316 µM) 5.04%; (second compound 0.01 µM, first compound 1 µM) 3.41%; (second compound 0.01 µM, first compound 3.16 µM) 3.13%; (second compound 0.01 µM, first compound 10 µM) 2.84%. The viability, T/C was 9.73% (second compound 0.0316 µM, first compound 0.0316 µM); 7.78% (second compound 0.0316 µM, first compound 0.1 µM); 4.91% (second compound 0.0316 µM, first compound 0.316 µM); 3.38% (second compound 0.0316 µM, first compound 1 µM); 3.09% (second compound 0.0316 µM, first compound 3.16 µM); 2.69% (second compound 0.0316 µM, first compound 10 µM). Also, the viability, T/C is 9.46% (second compound 0.1 µM, first compound 0.0316 µM); 8.29% (second compound 0.1 µM, first compound 0.1 µM); 4.85% (second compound 0.1 µM, first compound 0.316 µM); 3.44% (second compound 0.1 µM, first compound 1 µM); 3.22% (second compound 0.1 µM, first compound 3.16 µM); 2.91% (second compound 0.1 µM, first compound 10 µM). The viability, T/C is, setting by setting: (second compound 0.316 µM, first compound 0.0316 µM) 10.3%; (second compound 0.316 µM, first compound 0.1 µM) 7.09%; (second compound 0.316 µM, first compound 0.316 µM) 5.95%; (second compound 0.316 µM, first compound 1 µM) 4.14%; (second compound 0.316 µM, first compound 3.16 µM) 3.2%; (second compound 0.316 µM, first compound 10 µM) 3.39%. The viability, T/C runs as follows: (second compound 1 µM, first compound 0.0316 µM) 9.98%; (second compound 1 µM, first compound 0.1 µM) 8.28%; (second compound 1 µM, first compound 0.316 µM) 6.91%; (second compound 1 µM, first compound 1 µM) 4.16%; (second compound 1 µM, first compound 3.16 µM) 3.7%; (second compound 1 µM, first compound 10 µM) 4.07%.
With `CC(C)n1nc(-c2ccc3oc(N)nc3c2)c2c(N)ncnc21` + CCn1c(-c2cc(N3CCN(C)CC3)cnc2C(C)OC)c2c3cc(ccc31)-c1csc(n1)CC(NC(=O)C1CC1C)C(=O)N1CCCC(N1)C(=O)OCC(C)(C)C2, the IC50 reads like this: (curve of first compound, second compound 0.000949 µM) < 0.316 nM; (curve of first compound, second compound 0.003 µM) < 0.316 nM; (curve of first compound, second compound 0.00949 µM) < 0.316 nM; (curve of first compound, second compound 0.03 µM) < 0.316 nM; (curve of first compound, second compound 0.0949 µM) < 0.316 nM; (curve of first compound, second compound 0.3 µM) < 0.316 nM. The viability, T/C (second compound 0.000949 µM, first compound 0.000316 µM) was 24.8%; the viability, T/C (second compound 0.000949 µM, first compound 0.001 µM) was 23.1%; the viability, T/C (second compound 0.000949 µM, first compound 0.00316 µM) was 18.8%; the viability, T/C (second compound 0.000949 µM, first compound 0.01 µM) is 15.1%; the viability, T/C (second compound 0.000949 µM, first compound 0.0316 µM) was 11.8%; the viability, T/C (second compound 0.000949 µM, first compound 0.1 µM) was 7.87%. The viability, T/C by setting is: (second compound 0.003 µM, first compound 0.000316 µM) 12.8%; (second compound 0.003 µM, first compound 0.001 µM) 11.2%; (second compound 0.003 µM, first compound 0.00316 µM) 8.44%; (second compound 0.003 µM, first compound 0.01 µM) 6.54%; (second compound 0.003 µM, first compound 0.0316 µM) 4.49%; (second compound 0.003 µM, first compound 0.1 µM) 3.31%. Moreover, the viability, T/C was 5.79% (second compound 0.00949 µM, first compound 0.000316 µM); 5.54% (second compound 0.00949 µM, first compound 0.001 µM); 4.34% (second compound 0.00949 µM, first compound 0.00316 µM); 5.27% (second compound 0.00949 µM, first compound 0.01 µM); 2.11% (second compound 0.00949 µM, first compound 0.0316 µM); 1.59% (second compound 0.00949 µM, first compound 0.1 µM). Further, the viability, T/C by setting is: (second compound 0.03 µM, first compound 0.000316 µM) 3.45%; (second compound 0.03 µM, first compound 0.001 µM) 3.53%; (second compound 0.03 µM, first compound 0.00316 µM) 2.88%; (second compound 0.03 µM, first compound 0.01 µM) 2%; (second compound 0.03 µM, first compound 0.0316 µM) 1.3%; (second compound 0.03 µM, first compound 0.1 µM) 1.03%. The viability, T/C is 3.67% (second compound 0.0949 µM, first compound 0.000316 µM); 2.67% (second compound 0.0949 µM, first compound 0.001 µM); 2.18% (second compound 0.0949 µM, first compound 0.00316 µM); 1.68% (second compound 0.0949 µM, first compound 0.01 µM); 1.09% (second compound 0.0949 µM, first compound 0.0316 µM); 0.8% (second compound 0.0949 µM, first compound 0.1 µM). The viability, T/C reads like this: (second compound 0.3 µM, first compound 0.000316 µM) 2.77%; (second compound 0.3 µM, first compound 0.001 µM) 2.43%; (second compound 0.3 µM, first compound 0.00316 µM) 1.81%; (second compound 0.3 µM, first compound 0.01 µM) 1.5%; (second compound 0.3 µM, first compound 0.0316 µM) 1.12%; (second compound 0.3 µM, first compound 0.1 µM) 0.62%.
